The values below come from ChEMBL document CHEMBL1201862, “PubChem BioAssay data set” (2004).

Molecules are shown by their SMILES.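 Assay format: 96-well plates, 48-hour exposure. GI50 is the concentration that inhibits growth by half.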 Activity calls are given as the source filed them. Cut-off read from the data, not from the text of the source: active = GI50 up to about 1.1 µM and inactive = higher.

Some test systems named below: A498; BT-549; COLO 205; EKVX; HCC 2998; HCT-15; HL-60; MCF7; MDA-MB-435; MOLT-4; NCI-H226; OVCAR-3; OVCAR-4; OVCAR-8; PC-3; RPMI-8226; SF-295; SN12C; SNB-19; TK-10.
What all share (experiment): NCI anticancer screen, dose series, 48 h

As for `Cc1nc(N)c(N2CCN([N+](=O)[O-])CC2)c(O)n1`, the GI50 in the experiment on A498 is > 100 µM (inactive); with BT-549 it was > 100 µM (inactive); in the experiment on COLO 205, > 100 µM (inactive); with EKVX, > 100 µM (inactive); with HCC 2998, > 100 µM (inactive); in the experiment with HCT-15 it was above 100 µM. Moreover, the GI50 in the experiment on HL-60, with MCF7, in the experiment with MDA-MB-435, in the experiment on MOLT-4, in the experiment with NCI-H226 and with OVCAR-3 was > 100 µM (inactive) each time. The GI50 in the experiment with OVCAR-4, in the experiment with OVCAR-8, with PC-3, in the experiment on RPMI-8226, with SF-295 and in the experiment with SN12C was > 100 µM (inactive) in each case. The GI50 in the experiment on SNB-19 and in the experiment on TK-10 was > 100 µM (inactive) in each case.

In the case of `Cc1ccc(C(=O)/C=C2\Nc3cccnc3NC2=O)cc1`, the GI50 is > 100 µM (inactive) in the experiment with A498; > 100 µM (inactive) with BT-549; > 100 µM (inactive) with COLO 205; > 100 µM (inactive) with EKVX; > 100 µM (inactive) in the experiment on HCC 2998; above 100 µM in the experiment with HCT-15. The GI50 in the experiment with HL-60, in the experiment with MCF7, in the experiment with MDA-MB-435, in the experiment on MOLT-4, with NCI-H226 and with OVCAR-3 was > 100 µM (inactive) each time. Besides, the GI50 in the experiment on OVCAR-4 was > 100 µM (inactive); in the experiment on OVCAR-8, 51.2 µM (inactive); in the experiment with PC-3, > 100 µM (inactive); in the experiment with RPMI-8226, > 100 µM (inactive); in the experiment on SF-295, > 100 µM (inactive); in the experiment with SN12C it was > 100 µM (inactive). In addition, the GI50 in the experiment with SNB-19 and in the experiment on TK-10 was > 100 µM (inactive) throughout.

For `COc1ccc(Nc2c(C#N)c3n(c4ccccc24)c2ccccc2[n+]3C)cc1OC`, the GI50 in the experiment on A498 was 4.31 µM (inactive); in the experiment with BT-549, 7.33 µM (inactive); in the experiment on COLO 205, 2.19 µM (inactive); in the experiment with EKVX, 2.93 µM (inactive); in the experiment on HCC 2998 it was 4.17 µM (inactive); in the experiment with HCT-15 it was 1.88 µM. Moreover, the GI50 was 3.84 µM (inactive) with HL-60; 1.99 µM (inactive) with MCF7; 3.73 µM (inactive) in the experiment with MDA-MB-435; 1.68 µM (inactive) in the experiment with MOLT-4; 3.05 µM (inactive) in the experiment with NCI-H226; 3.52 µM (inactive) in the experiment with OVCAR-3. In addition, the GI50 in the experiment on OVCAR-4 is 4.68 µM (inactive); in the experiment on OVCAR-8 it was 1.67 µM (inactive); with PC-3 it was 2.33 µM (inactive); in the experiment with RPMI-8226, 1.98 µM (inactive); in the experiment on SF-295, 2.77 µM (inactive); in the experiment on SN12C it was 1.27 µM (inactive). Besides, the GI50 with SNB-19 is 3.92 µM (inactive); with TK-10, 2.56 µM (inactive).

For `CCOC(=O)N1N(c2ccccc2)C(=O)C1(c1ccccc1)c1ccccc1`, the GI50 with A498 was > 100 µM (inactive); in the experiment on BT-549 it was > 100 µM (inactive); with COLO 205, 80.9 µM (inactive); in the experiment with EKVX it was 48.1 µM (inactive); in the experiment on HCC 2998, > 100 µM (inactive); with HCT-15, above 100 µM. Besides, the GI50 in the experiment with HL-60 is 8.3 µM (inactive); in the experiment on MCF7, 25.9 µM (inactive); in the experiment on MDA-MB-435, > 100 µM (inactive); with MOLT-4, 20.1 µM (inactive); in the experiment on NCI-H226 it was 99.1 µM (inactive); in the experiment with OVCAR-3, 40.5 µM (inactive). Besides, the GI50 in the experiment with OVCAR-4 is > 100 µM (inactive); in the experiment with OVCAR-8, > 100 µM (inactive); in the experiment with PC-3 it was 19.2 µM (inactive); in the experiment on RPMI-8226 it was 14.7 µM (inactive); in the experiment with SF-295, 99.1 µM (inactive); with SN12C, > 100 µM (inactive). For the same compound, the GI50 in the experiment with SNB-19 and in the experiment with TK-10 was > 100 µM (inactive) each time.

With `O=C(O)Cc1ccc(Oc2nc3ccccc3nc2-c2ccccc2)cc1`, the GI50 in the experiment on A498 is > 100 µM (inactive); in the experiment on BT-549, 37 µM (inactive); in the experiment on COLO 205 it was 48.4 µM (inactive); in the experiment with EKVX, 27.7 µM (inactive); with HCC 2998, 49.5 µM (inactive); in the experiment on HCT-15, 65.3 µM. The GI50 in the experiment with HL-60 was 67.8 µM (inactive); in the experiment with MCF7 it was 56.5 µM (inactive); in the experiment with MDA-MB-435, 86.1 µM (inactive); in the experiment with MOLT-4 it was 86.9 µM (inactive); in the experiment on NCI-H226, 30.5 µM (inactive); in the experiment with OVCAR-3, 32.6 µM (inactive). In addition, the GI50 is > 100 µM (inactive) in the experiment with OVCAR-4; > 100 µM (inactive) in the experiment with OVCAR-8; 56 µM (inactive) with PC-3; 66.8 µM (inactive) in the experiment with RPMI-8226; 79.4 µM (inactive) with SF-295; 70 µM (inactive) with SN12C. For the same compound, the GI50 in the experiment on SNB-19 is > 100 µM (inactive); in the experiment with TK-10, 97.9 µM (inactive).

With `O=N/N=c1\o[n-][n+](CCc2ccccc2)c1Cc1/c(=N/N=O)o[n-][n+]1CCc1ccccc1`, the GI50 was 46.8 µM (inactive) in the experiment with A498; 32.9 µM (inactive) in the experiment with BT-549; > 100 µM (inactive) in the experiment with COLO 205; 50 µM (inactive) in the experiment with EKVX; 44.9 µM (inactive) with HCC 2998; above 100 µM in the experiment on HCT-15. Besides, the GI50 with HL-60 is 30.8 µM (inactive); in the experiment on MCF7, 70 µM (inactive); in the experiment on MDA-MB-435 it was 39.7 µM (inactive); in the experiment with MOLT-4 it was > 100 µM (inactive); in the experiment on NCI-H226, 29.9 µM (inactive); with OVCAR-3 it was 18.7 µM (inactive). Besides, the GI50 is 16.8 µM (inactive) with OVCAR-4; 21.7 µM (inactive) in the experiment on OVCAR-8; 33.8 µM (inactive) with PC-3; 43.1 µM (inactive) in the experiment with RPMI-8226; 25.6 µM (inactive) in the experiment with SF-295; 34.5 µM (inactive) in the experiment on SN12C. Further, the figures for the GI50 in the experiment with SNB-19 and in the experiment on TK-10 were 28.2 µM (inactive) and 25.2 µM (inactive), respectively.

With `COc1ccc(/C=C\c2cc(OC)c(OC)c(OC)c2)cc1OC(=O)NCCN(C)C`, the GI50 with A498 is 0.000269 µM (active); in the experiment on BT-549 it was 0.83 µM (active); with COLO 205, 0.215 µM (active); with EKVX it was < 0.0247 µM (active); with HCC 2998 it was 0.0631 µM (active); in the experiment on HCT-15, 0.000132 µM. Also, the GI50 in the experiment on HL-60 is < 0.0001 µM (active); in the experiment on MCF7, 0.00334 µM (active); in the experiment on MDA-MB-435 it was < 0.0001 µM (active); in the experiment with MOLT-4, 0.000145 µM (active); in the experiment with NCI-H226, 0.0064 µM (active); in the experiment with OVCAR-3, 0.000107 µM (active). Further, the GI50 with OVCAR-4 was 0.00144 µM (active); in the experiment on OVCAR-8, 0.000143 µM (active); in the experiment with PC-3 it was 0.000152 µM (active); in the experiment on RPMI-8226, 0.00014 µM (active); in the experiment with SF-295, 0.000119 µM (active); in the experiment on SN12C, 0.000244 µM (active). Also, the results for the GI50 with SNB-19 and in the experiment on TK-10 were 0.000178 µM (active) and 0.297 µM (active), respectively.
